Source: patent publication US20220133837A1, “PEPTIDE INHIBITORS OF NF KAPPA B AND USE THEREOF IN TREATMENT OF COVID-19 AND INFLAMMATORY DISEASES” (priority 2020, published 2022)
Read-outs that look alike come from different tables or passages of the source. Non-standard residues stand in square brackets, D forms with d. Residues, ends and D or L forms follow the SMILES beside them. No end group written: not given here.

Experiments:
ILIA = type: cell-based, human; settings: control cells set at 1.000, cells harvested after 24 hours
CCL2 = type: cell-based, human; settings: control cells set at 1.000, cells harvested after 24 hours
CXCL8 = type: cell-based, human; settings: control cells set at 1.000, cells harvested after 24 hours
IL1B = type: cell-based, human; settings: control cells set at 1.000, cells harvested after 24 hours
NFKB2 = type: cell-based, human; settings: control cells set at 1.000, cells harvested after 24 hours
TNFRSF1A = type: cell-based, human; settings: control cells set at 1.000, cells harvested after 24 hours
NFKB1 = type: cell-based, human; settings: control cells set at 1.000, cells harvested after 24 hours
TNFRSF9 = type: cell-based, human; settings: control cells set at 1.000, cells harvested after 24 hours
[1] = test system: carrageenan (CAR) induced inflammation model; experiment: Carrageenan (CAR) induced paw edema model; type: in vivo; settings: rat, peptide 70 ng, 1 nanomole injected 30 minutes after CAR; for Edema, change in paw volume after CAR injection: sub-plantar CAR 100 μL of 1% suspension, plethysmometer hourly for 24 h, versus control animals
Description: The anti-inflammatory activity of YMAP[D]EV (SEQ ID NO:116) was also examined in a classical carrageenan (CAR) induced inflammation model (Ivan G. Otterness, Peter F. Moore, Carrageenan foot edema test, Methods in Enzymology, Academic Press, Volume 162, 1988, Pages 320-327, (see URL www.sciencedirect.com/science/article/pii/0076687988620866); Fehrenbacher J C et al., Models of inflammation: Carrageenan- or complete Freund's Adjuvant (CFA)-induced edema and hypersensitivity in the rat. Curr Protoc Pharmacol. 2012 March; Chapter 5m Unit5.4, doi:10.1002/0471141755.ph0504s56. PMID: 22382999; PMCID: PMC4683998.). Paw edema was induced by a sub-plantar injection of CAR (100 μL of a 1% suspension in 0.85% saline). In the treatment group, YMAP[D]EV (SEQ ID NO:116) (70 ng, 1 nanomole) was injected 30 minutes after CAR injection. Changes in paw volume were measured using a plethysmometer immediately before CAR injection, and then at hourly intervals for 24 h. Edema was expressed as change in paw volume (mL) after CAR injection relative to the pre-injection value for each rat.

CCL5 = type: cell-based, human; settings: control cells set at 1.000, cells harvested after 24 hours
IL6 = type: cell-based, human; settings: control cells set at 1.000, cells harvested after 24 hours
TNF = type: cell-based, human; settings: control cells set at 1.000, cells harvested after 24 hours
ACE2 receptor = type: cell-based, human; settings: control cells set at 1.000, cells harvested after 24 hours
TMPRSS2 = type: cell-based, human; settings: control cells set at 1.000, cells harvested after 24 hours

CSCC[C@H](NC(=O)[C@@H](N)Cc1ccc(O)cc1)C(=O)N[C@@H](C)C(=O)N1CCC[C@H]1C(=O)N[C@H](CCC(=O)O)C(=O)N[C@H](C(=O)O)C(C)C [PEP2, L-tyrosyl-L-methionyl-L-alanyl-L-prolyl-D-glutamyl-L-valine] (H-YMAP[dE]V-OH)
ILIA RNA expression, ratio of treated cells to control cells (ILIA; DriverMap gene analysis): 0.260
CCL2 RNA expression, ratio of treated cells to control cells (CCL2; DriverMap gene analysis): 0.059
CXCL8 RNA expression, ratio of treated cells to control cells (CXCL8; DriverMap gene analysis): 0.0052
IL1B RNA expression, ratio of treated cells to control cells (IL1B; DriverMap gene analysis): 0.010
NFKB2 RNA expression, ratio of treated cells to control cells (NFKB2; DriverMap gene analysis): 0.138
TNFRSF1A RNA expression, ratio of treated cells to control cells (TNFRSF1A; DriverMap gene analysis): 0.752
NFKB1 RNA expression, ratio of treated cells to control cells (NFKB1; DriverMap gene analysis): 0.243
TNFRSF9 RNA expression, ratio of treated cells to control cells (TNFRSF9; DriverMap gene analysis): 0.007
Duration of the effect on edema ([1]; 24-hour period of observation): ≥ 24 h
Edema, change in paw volume after CAR injection [1]: marked decrease in edema within two hours
CCL5 RNA expression, ratio of treated cells to control cells (CCL5; DriverMap gene analysis): 0.0003
IL6 RNA expression, ratio of treated cells to control cells (IL6; DriverMap gene analysis): 0.057
TNF RNA expression, ratio of treated cells to control cells (TNF; DriverMap gene analysis): 0.015
ACE2 receptor RNA expression, ratio of treated cells to control cells (ACE2 receptor; DriverMap gene analysis): 1.000
TMPRSS2 RNA expression, ratio of treated cells to control cells (TMPRSS2; DriverMap gene analysis): 1.000

ANVAENA [PEP1, L-alanyl-L-asparaginyl-L-valyl-L-alanyl-L-glutamyl-L-asparaginyl-L-alanine]
ILIA RNA expression, ratio of treated cells to control cells (ILIA; Affymetrix gene arrays): 0.036
CCL2 RNA expression, ratio of treated cells to control cells (CCL2; Affymetrix gene arrays): 1.298
CXCL8 RNA expression, ratio of treated cells to control cells (CXCL8; Affymetrix gene arrays): 1.135
IL1B RNA expression, ratio of treated cells to control cells (IL1B; Affymetrix gene arrays): 0.691
NFKB2 RNA expression, ratio of treated cells to control cells (NFKB2; Affymetrix gene arrays): 0.851
TNFRSF1A RNA expression, ratio of treated cells to control cells (TNFRSF1A; Affymetrix gene arrays): 1.415
NFKB1 RNA expression, ratio of treated cells to control cells (NFKB1; Affymetrix gene arrays): 0.927
TNFRSF9 RNA expression, ratio of treated cells to control cells (TNFRSF9; Affymetrix gene arrays): 1.136
Edema, change in paw volume after CAR injection [1]: nearly identical data
CCL5 RNA expression, ratio of treated cells to control cells (CCL5; Affymetrix gene arrays): 0.456
IL6 RNA expression, ratio of treated cells to control cells (IL6; Affymetrix gene arrays): 1.135
TNF RNA expression, ratio of treated cells to control cells (TNF; Affymetrix gene arrays): 0.349
ACE2 receptor RNA expression, ratio of treated cells to control cells (ACE2 receptor; Affymetrix gene arrays): 0.632
TMPRSS2 RNA expression, ratio of treated cells to control cells (TMPRSS2; Affymetrix gene arrays): 0.525
